The results in this text go back to PubChem BioAssay AID624491 (Broad Institute, 2012).

The structures appear in SMILES notation. Activity calls are given as the source filed them.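 The calls were made as follows: active = fitted curve crossing a set activation limit at or below the highest valid dose tested; inconclusive = flat fit at 30 to 70% activation, or poor fit; inactive = the rest, including signal decreases.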

The test relates to D54 ERlucT glycosylation luciferase reporter, luminescence, 24 h. Briefly: N-linked glycosylation inhibitors, luciferase reporter, dose response, D54 ERlucT cells, luminescence, cherry-picks (AID 624491).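 Also: signal gain reflects blocked N-linked glycosylation of a luciferase reporter; actives raise luciferase signal so AC26 marks activators of the reporter.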 A general note: In a reporter assay the amount or activity of a reporter protein is the signal.

Take `Cc1cc(C)c2nc3nc(C)c(C)cc3c(N)c2c1`: the AC26 is 998 nM.
For the molecule `COc1ccc(C(=O)CC(SCC(NC(C)=O)C(=O)O)c2ccc(Cl)cc2)cc1OC` (stereo not given), the AC26 was 1440 nM.
Consider `CC(C)c1ccc(NC(=O)CN2C(=O)NC3(CCCCCCC3)C2=O)cc1`, for which the AC26 is 1210 nM.
Consider `NC(=O)c1ccc(NC(=O)CN2C(=O)NC(c3ccccc3)(c3ccccc3)C2=O)cc1`, for which the AC26 is 3410 nM.
As for `CCn1c2ccccc2c2cc(NC(=O)COC(=O)C3CCC(=O)N3)ccc21` (stereo not given), the AC26 was 3400 nM.
Consider `Cc1ccc(Nc2nc(N)nc(CN3CCN(Cc4ccccc4)CC3)n2)cc1Cl`, for which the AC26 was 110 nM.
The figure for `COc1cc(C(=O)Nc2ccc3c(c2)CCN3C(C)=O)cc(OC)c1OC` is 1240 nM.
Consider `Cc1cc([N+](=O)[O-])ccc1Nc1nc2ccccc2n2cnnc12`, for which the AC26 is 8280 nM.
In the case of `CC12CC[C@H]3[C@@H](CCC4(O)C[C@H](O)CCC34/C=N/NC(=O)c3ccccc3O)C1(O)CCC2C1=CC(=O)OC1` (stereo not given in full), the AC26 is 6060 nM.
Regarding `Cc1ccc2c(c1)C(=O)N1[C@H]3c4cc(Br)ccc4OC[C@@H]3[C@H](c3ccccc3)[C@]1(C)C(=O)N2`, the AC26 is 689 nM.
On to `CCN(CCCNC(=O)COc1cc(=O)n(CC)c2ccccc12)Cc1ccccc1`, for which the AC26 was 2530 nM.
Take `COc1cc(-c2nc(-c3ccccc3)c(-c3cccs3)[nH]2)cc(OC)c1OC`: the AC26 was 3280 nM.
In the case of `COc1ccc(NC(=O)c2oc3ccccc3c2NC(=O)c2ccco2)cc1`, the AC26 is 11700 nM.
The figure for `c1ccc2c(c1)c1c(c3ccccc32)CN2CCCC2C1` (stereo not given) is 2700 nM; for `CCNc1ccc(C(=O)OCC)cc1NC(=O)c1cccc(N(C)C)c1` it is 3160 nM; for `CCOc1ccccc1NC(=O)CN(c1ccc(OC)cc1)S(=O)(=O)c1c(C)noc1C` it is 4150 nM.
For the molecule `Oc1cc(Nc2ccccc2)cc2cccnc12`, the AC26 was 1030 nM.
On to `CC(Oc1ccc2c(c1)c1ccnc3c4ccccc4c(=O)n2c13)C(=O)NCCN1CCOCC1` (stereo not given), for which the AC26 was 6140 nM.
Take `C=CCOc1ccc2nc(NC(=O)OC)[nH]c2c1`: the AC26 was 414 nM.
The figure for `CCc1cccc(NC(=O)c2cc(S(=O)(=O)N(C)C)ccc2N2CCCC2)c1` is 646 nM.
In the case of `Cc1ccc(C(=O)/C=C/c2ccc(Br)cc2)o1`, the AC26 was 16600 nM.
For the molecule `Cc1ccc(NC(=O)c2cc(S(=O)(=O)N(C)C)ccc2N2CCCC2)cc1F`, the AC26 is 109 nM.
The figure for `COC(=O)c1c(NC(=O)c2cccnc2Cl)sc(C(=O)N(C)C)c1C` is 2090 nM; for `CC(C)(C)c1nnc2sc(SCC(=O)c3ccc4c(c3)OCCO4)nn2c1=O` it is 5230 nM.
Regarding `Nc1ccc(C(=O)N2CCN(S(=O)(=O)c3ccc4c(c3)OCCO4)CC2)cc1[N+](=O)[O-]`, the AC26 was 3880 nM.
Consider `COc1cc2c(cc1OC)C(=O)N1[C@H]3c4cc(Cl)ccc4OC[C@@H]3[C@H](c3ccccc3)[C@]1(C)C(=O)N2`, for which the AC26 is 609 nM.
`COc1ccc(C(=O)CSc2nn3c(=O)c(C(C)(C)C)nnc3s2)cc1`: the AC26 was 3870 nM.
As for `CC1CCCCN1C(=O)NC12CC3CC(CC(C3)C1)C2` (stereo not given), the AC26 is 4170 nM.
Consider `COc1ccc2c(c1)[C@H]1[C@H](CO2)[C@H](c2ccccc2)[C@]2(C)C(=O)Nc3cc(C)ccc3C(=O)N12`, for which the AC26 is 51.9 nM.
Consider `CC(=O)Nc1cccc(NC(=O)c2ccccc2OCc2ccccc2)c1`, for which the AC26 was 1350 nM.
The figure for `COc1ccc(-c2cc3ccccc3oc2=O)cc1NC(=O)c1ccc([N+](=O)[O-])o1` is 751 nM.
The result for `O=C(c1cccc(N2CCCC2=O)c1)N1CCN(c2cccc(Cl)c2)CC1` reads 2600 nM; that for `CN(C)C(=O)c1cccc(-c2cnc3c(NC=O)cc(-c4ccccc4Cl)cn23)c1`, 6820 nM.
The figure for `C(=C\c1nccc2c1[nH]c1ccccc12)/c1ccccc1` is 4680 nM; for `c1ccc(CNc2ncnc3c2cnn3-c2ccccc2)cc1` it is 8130 nM; for `Cc1[nH][nH]c(=O)c1C(c1ccc(-c2ccc(Cl)c(Cl)c2)o1)c1c(C)[nH][nH]c1=O` it is 917 nM.
As for `O=C(Nc1cccc(-c2cn3ccccc3n2)c1)c1cccc(Cl)c1`, the AC26 was 1750 nM.
As to `O=C1c2cccc3cccc(c23)C(=O)N1CC1CCN(CC(O)COCc2ccc3c(c2)OCO3)CC1` (stereo not given), the AC26 was > 19500 nM (inactive).
As for `Cc1ccc2c(c1)C(=O)N1[C@H]3c4cc(Cl)ccc4OC[C@@H]3[C@H](c3ccccc3)[C@]1(C)C(=O)N2`, the AC26 was 1260 nM.
As to `O=C(NCc1ccccc1)C1Cc2c(-c3cccc(F)c3)ccnc2O1` (stereo not given), the AC26 is 11.2 nM.
Turning to `COc1ccc(C(=O)/C=C\c2ccc(NC(=O)c3cccs3)cc2)cc1`, the AC26 is 2000 nM.
In the case of `Cc1ccc(-n2nc(C)c(NC(=O)CCl)c2C)cc1`, the AC26 was 2210 nM.
Turning to `CCOc1ccc(N2CCc3c(C)nc(SC)nc32)cc1`, the AC26 was 2650 nM.
For the molecule `O=C1NC(=O)N(Cc2ccccc2)C(=O)/C1=C/C=C/c1ccco1`, the AC26 is 1080 nM.
The figure for `Cn1ncc2c(O/N=C(\N)c3ccc(C(F)(F)F)cc3)ncnc21` is 445 nM; for `Cc1cc2oc(C(=O)Nc3c(C)n(C)n(-c4ccccc4)c3=O)c(C)c2cc1Cl` it is 781 nM.
Regarding `COc1cc(/C=N/NC(=O)c2ccc(CSc3nc4ccccc4[nH]3)cc2)cc(OC)c1OC`, the AC26 was 3980 nM.
`COc1ccc(C(=O)N/N=C/C23CC[C@@H](O)CC2(O)CC[C@@H]2[C@@H]3CCC3(C)C(C4=CC(=O)OC4)CCC23O)cc1` (stereo not given in full): the AC26 is 5710 nM.
For `CCOCCCNC(=O)c1cc2c(=O)n(CC)c3ccccc3c2s1`, the AC26 was 8290 nM.
The result for `CC(=O)c1cccc(-c2ccnc3c2CC(C(=O)NCC2CCOCC2)O3)c1` (stereo not given) reads 2070 nM; that for `COc1ccc(-c2ccc(C(c3c(C)[nH][nH]c3=O)c3c(C)[nH][nH]c3=O)o2)c([N+](=O)[O-])c1`, 224 nM.
The result for `Cc1cccc(C(=O)Oc2ccccc2/C=N/NC(=O)c2ccc(NC(=O)C(C)(C)C)cc2)c1` reads 1550 nM; that for `CCN(CC)CCNC(=O)c1cc2c(-c3ccc(Cl)cc3)nn(C)c2s1`, 3330 nM; that for `Cc1ccc(S(=O)(=O)N2CCN(C(=O)COC(=O)c3cc([N+](=O)[O-])ccc3NCCO)CC2)c(C)c1`, 2430 nM.
On to `CCN(CC)CCn1c2ccccc2c2nc3ccc([N+](=O)[O-])cc3cc21`, for which the AC26 is 7740 nM.
Regarding `COc1ccc(CNC(=O)C/C(C)=N/NC(=O)COc2ccc(C)cc2Br)cc1`, the AC26 is 5660 nM.
Take `O=C(Nc1ccc2oc(-c3cccnc3)nc2c1)c1ccc([N+](=O)[O-])o1`: the AC26 is 1130 nM.
In the case of `COc1ccc(C(=O)C=Cc2ccc(OCc3ccccc3)c(OC)c2)cc1OC`, the AC26 is 2690 nM.
Consider `COc1ccc(Nc2nc(N(C)c3ccccc3)nc(N)c2[N+](=O)[O-])cc1`, for which the AC26 is 271 nM.
In the case of `CN(Cc1ccccc1)c1nc2c(c(=O)n(C)c(=O)n2C)n1CCCc1ccccc1`, the AC26 is 981 nM.
In the case of `CCOC(=O)N1CCN(C(=O)c2cc(-c3ccncc3)nc3ccccc23)CC1`, the AC26 was 1410 nM.
The result for `CC1(C(=O)NCc2ccccc2)Cc2c(-c3cccc(C(N)=O)c3)ccnc2O1` (stereo not given) reads 2100 nM; that for `COc1ccc2c(c1)OC[C@H]1[C@H]2N2C(=O)c3ccc(F)cc3NC(=O)[C@@]2(C)[C@H]1c1ccccc1`, 1230 nM; that for `COc1ccc2c(c1)[C@H]1[C@H](CO2)[C@H](c2ccccc2)[C@]2(C)C(=O)Nc3ccccc3C(=O)N12`, 278 nM.
As for `Nc1nc(-c2ccccc2)cc(N2CCCCC2)n1`, the AC26 is 4270 nM.
